# Reference: ChEMBL document CHEMBL3714716, “Modulators of the relaxin receptor 1” (2015)
# The source made the active and inactive calls. No cut-off for these calls is given here.
# Legend:
# Relaxin receptor 1 = target: T1, Relaxin receptor 1 (Homo sapiens, UniProt Q9HBX9); assay: Agonist activity at RXFP1 receptor (unknown origin) expressed in HEK293 cells assessed as stimulation of cAMP production incubated for 30 mins by TR-FRET based HTRF assay; format: functional, cell-based
# T1 sequence (Q9HBX9 whole entry): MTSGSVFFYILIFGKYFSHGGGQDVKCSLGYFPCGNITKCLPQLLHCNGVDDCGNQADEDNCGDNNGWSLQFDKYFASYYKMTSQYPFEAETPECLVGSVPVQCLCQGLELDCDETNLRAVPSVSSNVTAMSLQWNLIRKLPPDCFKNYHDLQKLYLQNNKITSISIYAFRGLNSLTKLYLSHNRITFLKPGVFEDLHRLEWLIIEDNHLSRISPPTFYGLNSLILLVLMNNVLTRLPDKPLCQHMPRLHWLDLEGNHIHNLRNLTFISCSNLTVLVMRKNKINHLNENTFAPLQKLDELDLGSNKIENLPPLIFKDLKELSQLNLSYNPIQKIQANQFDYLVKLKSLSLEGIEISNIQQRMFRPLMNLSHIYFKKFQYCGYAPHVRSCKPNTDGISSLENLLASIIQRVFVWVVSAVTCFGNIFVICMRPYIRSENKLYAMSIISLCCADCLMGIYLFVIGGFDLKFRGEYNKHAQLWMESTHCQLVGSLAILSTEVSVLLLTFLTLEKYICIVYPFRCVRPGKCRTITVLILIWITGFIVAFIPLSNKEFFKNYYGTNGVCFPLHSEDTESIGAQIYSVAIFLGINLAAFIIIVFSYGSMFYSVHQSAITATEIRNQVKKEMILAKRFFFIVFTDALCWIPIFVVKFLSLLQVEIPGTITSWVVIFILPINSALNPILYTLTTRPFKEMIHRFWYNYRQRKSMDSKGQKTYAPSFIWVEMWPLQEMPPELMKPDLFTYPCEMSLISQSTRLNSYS
# [1] = target: T2, Relaxin receptor 1 (Homo sapiens) (UniProt Q9HBX9); assay: Agonist activity at RXFP1 receptor (unknown origin) expressed in HEK293 cells assessed as stimulation of cAMP production incubated for 30 mins by TR-FRET based HTRF assay relative to forskolin; format: functional, cell-based
# T2 sequence (whole entry): T1 sequence (Q9HBX9 whole entry)
Compound,AC50 (Relaxin receptor 1; read-out: AC50) [µM],%max [1],AC50 (Relaxin receptor 1; hek293)
CCOc1ccccc1C(=O)Nc1ccccc1C(=O)Nc1cccc(SC(F)(F)F)c1,0.666,98%,–
O=C(Nc1cccc(C(F)(F)F)c1)c1ccccc1NC(=O)c1cccc2ccccc12,5.93,81%,–
O=C(Nc1ccc2c(c1)OCO2)c1ccccc1NC(=O)C1CCCCC1,74.7,58%,–
O=C(Nc1cccc(C(F)(F)F)c1)c1ccccc1NC(=O)c1ccccc1OC(F)(F)F,1.18,96%,–
Cc1ccc(CNC(=O)c2ccccc2NC(=O)C2CCCCC2)o1,149,31%,–
CCOc1ccccc1C(=O)Nc1ncccc1C(=O)Nc1cccc(S(=O)(=O)C(F)(F)F)c1,1.67,98%,–
CN(C)CCCOc1ccccc1C(=O)Nc1ccccc1C(=O)Nc1cccc(C(F)(F)F)c1,59.3,66%,–
CCOc1ccccc1C(=O)Nc1ccccc1C(=O)Nc1ccccn1,29.7,74%,–
CCOc1ccccc1C(=O)Nc1cccnc1C(=O)Nc1cccc(S(=O)(=O)C(F)(F)F)c1,4.71,73%,–
COc1ccccc1C(=O)Nc1ccccc1C(=O)Nc1cccc(C(F)(F)F)c1,0.334,99%,–
CCOc1ccccc1C(=O)Nc1cccc2c1C(=O)N(c1cccc(S(=O)(=O)C(F)(F)F)c1)C2,–,inactive,Not Active
CC(=O)Nc1ccccc1C(=O)Nc1cccc(C(F)(F)F)c1,74.7,51%,–
CCSc1ccccc1C(=O)Nc1ccccc1C(=O)Nc1cccc(S(=O)(=O)C(F)(F)F)c1,0.529,95%,–
O=C(Nc1ccccc1C(=O)Nc1cccc(C(F)(F)F)c1)c1cc(C(F)(F)F)cc(C(F)(F)F)c1,4.2,94%,–
O=C(Nc1cccc(S(=O)(=O)C(F)(F)F)c1)c1ccccc1NC(=O)C1CCCCC1,1.06,87%,–
COc1ccccc1C(=O)Nc1ccccc1C(=O)Nc1cccc(N2CCCCC2)c1,5.29,77%,–
O=C(Nc1cccc(C(F)(F)F)c1)c1ccccc1OCCN1CCOCC1,–,inactive,Not Active
O=C(Nc1cccc(F)c1)c1ccccc1NC(=O)C1CCCCC1,13.3,81%,–
O=C(NCc1ccccc1C(F)(F)F)c1ccccc1NC(=O)C1CCCCC1,–,inactive,Not Active
CCC(CC)C(=O)Nc1ccccc1C(=O)Nc1cccc(C(F)(F)F)c1,5.29,59%,–
COc1ccccc1C(=O)Nc1ccccc1C(=O)Nc1cccc(-c2cccs2)c1,–,inactive,Not Active
C#Cc1cccc(NC(=O)c2ccccc2NC(=O)C2CCCCC2)c1,6.66,85%,–
O=C(Nc1cccc(C(F)(F)F)c1)c1ccccc1-c1ccccc1,–,inactive,Not Active
O=C(Nc1cccc(Br)c1)c1ccccc1NC(=O)C1CCCCC1,2.65,91%,–
O=C(Nc1cccc(C(F)(F)F)c1)c1ccccc1NC(=O)C12CC3CC(CC(C3)C1)C2,4.71,87%,–
CCOc1ccccc1C(=O)NCCC(=O)Nc1cccc(S(=O)(=O)C(F)(F)F)c1,4.71,90%,–

# The remaining lines, values ahead:
AC50 (Relaxin receptor 1; read-out: AC50) [µM],%max [1],AC50 (Relaxin receptor 1; hek293),Compound
–,inactive,Not Active,CN(C)CCOc1ccccc1C(=O)Nc1cccc(C(F)(F)F)c1
14.9,85%,–,O=C(Nc1ccccc1C(=O)Nc1cccc(C(F)(F)F)c1)c1ccc2ccccc2c1
1.49,96%,–,O=C(Nc1ccccc1C(=O)Nc1cccc(C(F)(F)F)c1)c1ccc([N+](=O)[O-])cc1
0.747,97%,–,O=C(Nc1cccc(C(F)(F)F)c1)c1ccccc1NC(=O)c1ccccc1Oc1ccccc1
–,inactive,Not Active,O=C(Nc1ccccc1Br)c1ccccc1NC(=O)C1CCCCC1
7.47,78%,–,O=C(Nc1ccccc1C(=O)Nc1cccc(C(F)(F)F)c1)c1ccccc1Br
47.1,71%,–,O=C(Nc1cccc(C(F)(F)F)c1)c1ccccc1NCc1cccc(C(F)(F)F)c1
0.747,98%,–,COCCOc1ccccc1C(=O)Nc1ccccc1C(=O)Nc1cccc(C(F)(F)F)c1
–,inactive,Not Active,O=C(NCc1ccco1)c1ccccc1NC(=O)C1CCCCC1
–,inactive,Not Active,O=C(Nc1cccc(C(F)(F)F)c1)c1ccc(NC(=O)C2CCCCC2)cc1
4.2,93%,–,O=C(Nc1ccccc1C(=O)Nc1cccc(C(F)(F)F)c1)c1ccc(Br)cc1
5.29,94%,–,CCCCC(=O)Nc1ccccc1C(=O)Nc1cccc(C(F)(F)F)c1
2.11,84%,–,C/C=C/c1cccc(NC(=O)c2ccccc2NC(=O)c2ccccc2OCC)c1
2.65,99%,–,O=C(Nc1cccc(C(F)(F)F)c1)c1ccccc1NC(=O)c1ccccc1OCCN1CCCCC1
0.471,99%,–,CC(C)Oc1ccccc1C(=O)Nc1ccccc1C(=O)Nc1cccc(C(F)(F)F)c1
149,37%,–,CCOc1ccccc1C(=O)Nc1ccccc1C(=O)Nc1cccnc1
0.747,96%,–,CCOc1ccccc1C(=O)Nc1ccccc1C(=O)Nc1cccc(I)c1

AC50 (Relaxin receptor 1; read-out: AC50) [µM],%max [1],AC50 (Relaxin receptor 1; hek293),Compound
4.2,85%,–,O=C(Nc1ccccc1C(=O)Nc1cccc(S(=O)(=O)C(F)(F)F)c1)c1ccccc1I
5.29,89%,–,O=C(Nc1ccccc1C(=O)Nc1cccc(C(F)(F)F)c1)c1cccc(-c2ccccc2)c1
187,32%,–,Cc1ccc(NC(=O)c2ccccc2NC(=O)C2CCCCC2)cc1
–,inactive,Not Active,CCOc1ccccc1C(=O)Nc1ccccc1C(=O)Nc1cccc(C(=N)N)c1
9.4,77%,–,CS(=O)(=O)c1cccc(C(=O)Nc2ccccc2C(=O)Nc2cccc(C(F)(F)F)c2)c1
5.29,79%,–,CC(C)(C)OC(=O)Nc1ccccc1C(=O)Nc1cccc(C(F)(F)F)c1
4.2,93%,–,O=C(Nc1cccc(C(F)(F)F)c1)c1ccccc1Nc1cccc(C(F)(F)F)c1
9.4,45%,–,O=C(NCc1ccco1)c1ccccc1NC(=O)c1ccccc1NC(=O)C1CCCCC1
–,inactive,Not Active,O=C(Nc1cccc(N2CCCCC2)c1)c1ccccc1NC(=O)C1CCCCC1
1.88,90%,–,O=C(Nc1cccc(SC(F)(F)F)c1)c1ccccc1NC(=O)C1CCCCC1
1.67,97%,–,O=C(Nc1ccccc1C(=O)Nc1cccc(C(F)(F)F)c1)c1cccc(Br)c1
2.65,70%,–,CC(C)(C)c1cccc(NC(=O)c2ccccc2NC(=O)C2CCCCC2)c1
8.38,79%,–,O=C(Nc1cccc(C(F)(F)F)c1)c1ccccc1NC(=O)C1CC1
8.38,86%,–,O=C(Cc1ccccc1)Nc1ccccc1C(=O)Nc1cccc(C(F)(F)F)c1
–,inactive,Not Active,O=C(Nc1cccc(C(F)(F)F)c1)c1ccccc1OCCN1CCCCC1
29.7,77%,–,COc1ccccc1C(=O)Nc1ccccc1C(=O)N(C)c1cccc(C(F)(F)F)c1
